Results taken from patent US20160331853A1, “COMPOSITIONS FOR RADIOTHERAPY AND USES THEREOF” (The Trustees of Columbia University in the City of New York, priority 2014, published 2016).
“And” between values parts separate entries of the source, which are not always exact repeats. Equal entries are not always repeated.

Experiments:
[1] = Example 12: hot and cold Avidin mix binding to talc, repeat with controls, OD 450 nm
Method: The following Example repeated the hot/cold experiment shown in Example 10, with the addition of multiple controls.
1. Prepare 10 mL of 40 ng/mL (or […]) HRP Avidin in 1×PBS using 5.75 mg/mL or 32.5 μM of HRP Avidin stock solution.
6. Weigh 8 mg of Avidin (cold Avidin), then resuspend it in 2 mL of PBS that contains 40 ng/mL of “hot” Avidin. So the solution will now be 40 ng/mL hot Avidin+4 mg/mL of Cold Avidin. Label this tube as #1.
7. Make 3 mL of 1:10 dilution of solution in Tube #1 and make labeled Tube #2 containing 2.7 mL of 40 ng/mL in Hot Avidin solution in PBS+300 μL of Tube #1. The solution in the tube will contain 40 ng/mL of Hot Avidin+400 μg of Cold Avidin.
8. Make 1:2 dilution of solution in Tube #2 using as a diluted solvent of […] of Hot Avidin in PBS. Added 1 mL of Hot Avidin+1 mL of Tube #2. The final concentration will be 40 ng/mL of Hot Avidin+200 μg/mL of Cold Avidin. Label this tube as Tube #3.
9. Make 1:2 dilution of solution in Tube #3, using as a solvent of 40 ng/mL Hot Avidin in PBS Prepare 2 mL of solution: 1 mL of 40 ng/mL of Hot Avidin in PBS+1 mL of Tube #3 The final concentration will be 40 ng/mL of hot Avidin+100 μg/mL of Cold Avidin. Label this tube as Tube #4.
3. Wash the plate 3× with 300 μL PBS containing 10% FBS.
7. Add 100 μL of Stop Solution 2.
8. Read absorbance at 450 nm using the plate reader.

[2] = Example 3: binding Avidin to 100 mg sterile talc, Pierce 660 nm total protein assay of supernatants and washes
Method: Collect the supernatant liquid from two tubes containing the two highest concentrations of Avidin at varying points.
4. Run total protein assay using Pierce microplate kit and read plate in plate reader.
6. Wash all tubes in PBS two times, collecting the supernatant liquid from each wash ONLY from the two highest concentrations of Avidin (tubes labeled 1-2b, 1-2c, and 2-2b, 2-2c).
7. Continue to wash 3× with 0.5 mL of 0.2% EDTA.
8. Collect the supernatant from each wash and transfer to the new tubes only from the original tubes with the highest concentration of Avidin (50 μM and 5 μM). Collect only the FIRST wash with EDTA solution for the other tubes.
10. Run the total protein assay (see e.g., Example 1) using all the collected supernatant liquid.
The shape is similar to a nugget, and the calculations will substitute it's geometry with spheres. […] Less than 5% is below that range, and above that range.

[3] = Example 4: amount of Avidin saturating 100 mg talc, Pierce total protein assay of supernatant; format: binding
Excerpt: 2. Collect the supernatant from each tube but discard the pellet.
3. Run the Pierce total protein assay using the following dilutions of the collected supernatant.
4. Read plate in the plate reader (absorbance assay) at 660 nm wavelength.

[4] = Coupling of avidin to talc, binding capacity (general description)
[5] = Example 14: talc bound to HRP- and cold Avidin, 48 hours incubation in PBS containing 10% FBS, OD 450 nm; format: physicochemical; settings: 48 hours in PBS containing 10% FBS
Method: Purpose: To check how strong the conjugate of hot/cold Avidin to Talc is. […] Absorbance will be checked twice—once before washing with PBS containing 10% FBS and after 48 hours, washing will be done.
1. Prepare 10 mL of 40 ng/mL (or 260 μM) HRP Avidin in 1×PBS using 5.75 mg/mL or 32.5 uM of HRP Avidin stock solution.
6. Weigh 8 mg of Avidin (cold Avidin), then resuspend it in 2 mL of PBS containing 40 ng/mL of “hot” Avidin. So the solution will now be 40 ng/mL hot Avidin+4 mg/mL of Cold Avidin. Label this tube as #1.
14. […] Two identical microplates need to be set up, labeling them as: plate#I and plate#2. Design of the plate:
3. Wash both plates 3× with 300 μL PBS.
5. […] Mix constantly, cover plate with Aluminum foil.
6. Add 100 μL of TMB to samples in plate #1.
8. After incubation with TMB is over, add 100 μL of Stop Solution 2.
9. Read absorbance at 450 nm using the plate reader.
3. Collect 100 μL supernatant from samples except native controls and load on same plate.
4. Wash plate except supernatant samples 3× with 300 μL PBS.
6. Add 100 μL of TMB to all samples in plate#2.
8. After incubation with TMB is over add 100 μL of Stop Solution 2.

[6] = Example 2: Avidin and Avidin-Rhodamine binding to talc after PBS and 0.2% EDTA washes, fluorescent microscope; settings: 100 mg talc; 3x PBS, 3x 0.2% EDTA washes
Method: The resulting mixtures were then washed with PBS and then washed with 0.2% EDTA.
3. Mix 1 mL of 100 μM of Avidin with 500 μL of 30.3 μM of Avidin Rhodamine (keep lights off).
4. […] Mix well to bring the dry talc powder to evenly distributed reaction solution.
8. Place tubes on the rotator and incubate overnight at 4° C.
5. Continue to wash all “b” labeled tubes with 0.2% EDTA. Wash 3× in 0.5 mL EDTA.
7. View slides under fluorescent microscope.

Question: For “Avidin: Avidin from egg white (Sigma, Cat. A9275), unlabeled (cold) Avidin”, which “Efficiency of binding, OD” value ([1]; 1 mg talc, Cold Avidin only 100 ug/mL) is on record?
Answer: 0.31 OD

Question: And the “Efficiency of binding, OD” value ([1]; 1 mg talc, Cold Avidin only 200 ug/mL)?
Answer: 0.27 OD

Question: What about the “Efficiency of binding, OD” value ([1]; 1 mg talc, Cold Avidin only 400 ug/mL) of the same substance?
Answer: 0.3 OD

Question: And the “Efficiency of binding, OD” value ([1]; 1 mg talc, Cold Avidin only 4 mg/mL)?
Answer: 0.33 OD

Question: What about the “Efficiency of binding, OD” value ([1]; 5 mg talc, Cold Avidin only 100 ug/mL) of the same substance?
Answer: 1.38 OD

Question: And the “Efficiency of binding, OD” value ([1]; 5 mg talc, Cold Avidin only 200 ug/mL)?
Answer: 1.4 OD

Question: And the “Efficiency of binding, OD” value ([1]; 5 mg talc, Cold Avidin only 400 ug/mL)?
Answer: 1.01 OD

Question: What about the “Efficiency of binding, OD” value ([1]; 5 mg talc, Cold Avidin only 4 mg/mL) of the same substance?
Answer: 1.23 OD

Question: What about the “AVIDIN in supernatant after incubation” value ([2]; 198.4 μg Avidin + 100 mg talc) of the same substance?
Answer: 13.7 μg/0.5 ml

Question: What about the “Avidin binded to talc” value ([2]; 198.4 μg Avidin + 100 mg talc) of the same substance?
Answer: 184.7 µg

Question: And the “Saturation of AVIDIN to the combine surface of 100 mg talc” value ([2]; 198.4 μg Avidin added)?
Answer: 2.48 μg/cm^2

Question: What about the “AVIDIN in supernatant after incubation” value ([2]; 198.4 μg Avidin in 0.5 ml + 100 mg talc) of the same substance?
Answer: 27.4 µg/mL

Question: What about the “Amount of Avidin removed by wash” value ([2]; 198.4 μg, 1st wash with EDTA) of the same substance?
Answer: 15.8 µg/mL

Question: What about the “Amount of Avidin removed by wash” value ([2]; 198.4 μg, 1st wash with PBS) of the same substance?
Answer: 31.4 µg/mL

Question: What about the “Amount of Avidin removed by wash” value ([2]; 198.4 μg, 2nd wash with EDTA) of the same substance?
Answer: 19.8 µg/mL

Question: What about the “Amount of Avidin removed by wash” value ([2]; 198.4 μg, 2nd wash with PBS) of the same substance?
Answer: 27.6 µg/mL

Question: And the “Amount of Avidin removed by wash” value ([2]; 198.4 μg, 3rd wash with EDTA)?
Answer: 13 µg/mL

Question: What about the “Amount of Avidin removed by wash” value ([2]; 198.4 μg, 3rd wash with PBS) of the same substance?
Answer: 32.7 µg/mL

Question: And the “AVIDIN in supernatant after incubation” value ([2]; 1650.3 μg Avidin + 100 mg talc)?
Answer: 1185 μg/0.5 ml

Question: What about the “Avidin binded to talc” value ([2]; 1650.3 μg Avidin + 100 mg talc) of the same substance?
Answer: 465.3 µg

Question: What about the “Saturation of AVIDIN to the combine surface of 100 mg talc” value ([2]; 1650.3 μg Avidin added) of the same substance?
Answer: 6.25 μg/cm^2

Question: What about the “AVIDIN in supernatant after incubation” value ([2]; 1650.3 μg Avidin in 0.5 ml + 100 mg talc) of the same substance?
Answer: 2370 µg/mL

Question: What about the “Amount of Avidin removed by wash” value ([2]; 1650.3 μg, 1st wash with EDTA) of the same substance?
Answer: 13.2 µg/mL

Question: And the “Amount of Avidin removed by wash” value ([2]; 1650.3 μg, 1st wash with PBS)?
Answer: 307.4 µg/mL

Question: And the “Amount of Avidin removed by wash” value ([2]; 1650.3 μg, 2nd wash with EDTA)?
Answer: 12.3 µg/mL

Question: And the “Amount of Avidin removed by wash” value ([2]; 1650.3 μg, 2nd wash with PBS)?
Answer: 67.3 µg/mL

Question: And the “Amount of Avidin removed by wash” value ([2]; 1650.3 μg, 3rd wash with EDTA)?
Answer: 13.2 µg/mL

Question: What about the “Amount of Avidin removed by wash” value ([2]; 1650.3 μg, 3rd wash with PBS) of the same substance?
Answer: 40.3 µg/mL

Question: And the “release of Avidin from talc surface during washes” value ([2]; 3x PBS, 3x 0.2% EDTA)?
Answer: Only first wash removed quantifiable amounts of Avidin from talc surface

Question: What about the “saturation of talc particles” value ([2]; highest concentration of Avidin (50 μM), 100 mg talc) of the same substance?
Answer: not fully saturated

Question: And the “Avidin binded with talc” value ([3]; 330 μg/ml Avidin added)?
Answer: 110.4 µg/mL

Question: What about the Avidin in supernatant ([3]; 330 μg/ml Avidin added) of the same substance?
Answer: 219.6 μg, ml

Question: What about the “Avidin per talc surface” value ([3]; 330 μg/ml Avidin added) of the same substance?
Answer: 1.5 μg/cm2

Question: What about the “Avidin binded with talc” value ([3]; 3300 μg/ml Avidin added) of the same substance?
Answer: 2452.7 µg/mL

Question: What about the Avidin in supernatant ([3]; 3300 μg/ml Avidin added) of the same substance?
Answer: 847.3 μg, ml

Question: What about the “Avidin per talc surface” value ([3]; 3300 μg/ml Avidin added) of the same substance?
Answer: 33.0 μg/cm2 and 33 μg/cm2

Question: And the “Avidin binded with talc” value ([3]; 6600 μg/ml Avidin added)?
Answer: 4631.5 µg/mL

Question: What about the Avidin in supernatant ([3]; 6600 μg/ml Avidin added) of the same substance?
Answer: 1968.5 μg, ml

Question: What about the “Avidin per talc surface” value ([3]; 6600 μg/ml Avidin added) of the same substance?
Answer: 62.3 μg/cm2

Question: And the “Avidin binded with talc” value ([3]; 13200 μg/ml Avidin added)?
Answer: 7952.7 µg/mL

Question: And the Avidin in supernatant ([3]; 13200 μg/ml Avidin added)?
Answer: 5247.3 μg, ml

Question: What about the “Avidin per talc surface” value ([3]; 13200 μg/ml Avidin added) of the same substance?
Answer: 106.9 μg/cm2

Question: And the “Avidin binded with talc” value ([3]; 19800 μg/ml Avidin added)?
Answer: 12166.7 µg/mL

Question: What about the Avidin in supernatant ([3]; 19800 μg/ml Avidin added) of the same substance?
Answer: 7633.3 μg, ml

Question: What about the “Avidin per talc surface” value ([3]; 19800 μg/ml Avidin added) of the same substance?
Answer: 163.5 μg/cm2

Question: What about the “saturation of talc particles” value ([3]; increasing concentrations of Avidin) of the same substance?
Answer: not fully saturated

Question: What about the “avidin bound by talc” value [4] of the same substance?
Answer: > 2 nanograms of avidin per mg of talc

Question: What about the “stability of binding of Avidin to talc” value [5] of the same substance?
Answer: unchanged at 48 hours

Question: And the “binding to talc after washing” value [6]?
Answer: remained bound to talc despite multiple washes
